Measurements taken from patent publication US20060287257A1, “Pharmaceutical compositions to treat diseases caused by mycobacterium” (priority 2005, published 2006).

Test system: Mycobacterium tuberculosis strain H37Rv
Experiment: Screen against Mycobacterium tuberculosis strain H37Rv by serial dilution
Type: cell-based
Conditions: M. tuberculosis H37Rv
Text: All of the compounds were screened against Mycobacterium tuberculosis strain H37Rv by serial dilution. The minimum inhibitory concentration and degree of inhibition is presented.

| Compound | % Inhibition (degree of inhibition) | MIC (minimum inhibitory concentration) |
| --- | --- | --- |
| CCCCCCCCCCCCCCCCCC(=O)O.CCCCCCCCCCCCCCCCCC(=O)O.N=C(NCCCCCCNC(=N)NC(=N)Nc1ccc(Cl)cc1)NC(=N)Nc1ccc(Cl)cc1 [Compound 11, chlorhexidine distearate] | 99% | 3.13 µg/mL |
| N=C(NCCCCCCNC(=N)NC(=N)Nc1ccc(Cl)cc1)NC(=N)Nc1ccc(Cl)cc1.Sc1nc2ccccc2s1.Sc1nc2ccccc2s1 [Compound 5, chlorhexidine di-2-mercaptobenzthiazole] | 90% | 1.56 µg/mL |
| Isoniazide dodecyl benzene sulfonate [Compound 2] | 99% | 0.78 µg/mL |
| chlorhexidine dithymol [Compound 4] | 98% | 1.56 µg/mL |
| CCCCCCCCCCCC(=O)O.NC(=NCCCCCCN=C(N)N=C(N)Nc1ccc(Cl)cc1)N=C(N)Nc1ccc(Cl)cc1 [Compound 6, chlorhexidine dilaurate] | 99% | 3.13 µg/mL |
| N=C(NCCCCCCNC(=N)NC(N)=Nc1ccc(Cl)cc1)NC(N)=Nc1ccc(Cl)cc1.NCCCC(O)(P(=O)(O)O)P(=O)(O)O.NCCCC(O)(P(=O)(O)O)P(=O)(O)O [Compound 7, chlorhexidine di [4-amino-1-hydroxybutylidene] bis-phosphonate] | 94% | 3.13 µg/mL |
| N=C(NCCCCCCNC(=N)NC(=N)Nc1ccc(Cl)cc1)NC(=N)Nc1ccc(Cl)cc1.Oc1ccccc1-c1ccccc1.Oc1ccccc1-c1ccccc1 [Compound 9, chlorhexidine di-ortho phenyl phenol] | 99% | 3.13 µg/mL |
| chlorhexidine beta cyclodextrin sulfobutyl ether [Compound 8] | 94% | 3.13 µg/mL |
| N-cocoylamide-L-argimine ethyl ester triclosanate [Compound 3] | 94% | 1.56 µg/mL |
